Consider 1 compound from US20220288058A1, “COMBINATION THERAPY USING A MALT1 INHIBITOR AND A BTK INHIBITOR” (Janssen Pharmaceutica NV, priority 2021, published 2022).

pIC50: −log10 of the molar value.

Test [1] deals with NF-κB-driven cytokines: interleukin (IL)10, tumor necrosis factor α (TNF α), and IL 12p70. Description: Serum cytokine secretion in LY2298 tumor bearing mice. The following applies: 1 day posttreatment, compared with vehicle. Type of test: in vivo, mouse. The protocol:
Cytokine secretion from serum samples of LY2298 tumor bearing mice was measured following Compound A and Compound B treatment.

The test system of test [2] is OCI-Ly10. Description: Inhibition of DLBCL cancer cell proliferation (CellTiter-Glo), Compound A and Compound B mono and combination. Type of test: cell-based, human. The following applies: monotherapy, highest concentration tested, 4 days. As to the method: (§1) Compound A and Compound B were used throughout the in vitro and cellular assessment of activity. All small molecules were prepared as 100% dimethyl sulfoxide (DMSO) stocks as indicated. A final concentration of 0.25% DMSO was used as a control. High Control=Cells+DMSO 0.25%.
(§2) A panel of 4 B-cell lymphoma lines was treated with different doses of both compounds. The following ABC-DLBCL cell lines were tested: OCI-Ly10; TMD8; OCI-Ly3; and HBL1. The cell lines were grown in 96-well plates and treated with a matrix of seven scalar concentrations of Compound A ([…]) and six scalar concentrations of Compound B ([…]) and all combinations thereof. This checkerboard design was repeated on up to four separate plates. The final concentration of DMSO was 0.25%. After an incubation of four days at 37° C. and 5% CO2, cell viability was determined by adding CellTiter-Glo®. Luminescence was read on an Envision device and readouts were used to calculate potential combination effects.
For the assessment of combination effects on DLBCL or MCL cancer cell proliferation, the observed combination effects were evaluated using the public available BIGL (Biochemically Intuitive Generalized Loewe Model) R package which measures the evidence in the data, in the presence of variability, against certain null models derived from the monotherapies. […]

For test [3], the system named is OCI-Ly3. Described as above. The following applies: monotherapy, highest concentration tested, 4 days. It is filed as cell-based. As to the method:
as §1, §2
(§3) For the assessment of combination effects on DLBCL or MCL cancer cell proliferation, the observed combination effects were evaluated using the public available BIGL (Biochemically Intuitive Generalized Loewe Model) R package which measures the evidence in the data, in the presence of variability, against certain null models derived from the monotherapies. In first step, monotherapies were fitted with 4PL models with extra constraint of common baseline between two agents. When no activity was observed, a straight line was fitted through the monotherapy data. In a second step, hypothesis tests at 5% significance level were performed which basically contrast the observed readouts of the combination experiments with those predicted from the null model derived from the monotherapies where both HSA (Highest Single Agent) 17 and generalized Loewe18 were assessed for these studies.

The subject of test [4] is TMD8. The description is as above. It is filed as cell-based. The following applies: monotherapy, highest concentration tested, 4 days. As to the method:
as §1, §2, §3

Test [5] relates to NHL and CLL. As to the kind of experiment: Clinical trial of Compound B monotherapy in the same patient population. Type of test: in vivo, human. As to the method:
Another clinical trial is being conducted in the same patient population, in which Compound B is administered as a monotherapy. […] Two patients (1 MCL, 1 CLL) achieved PR soon after dose escalation to 280 mg BID at Cycles 7 and 9, respectively. […] Therefore, the response seen in CLL/SLL patients in the combinational study is unlikely to attribute to either Compound A or Compound B alone.

Test [6] has as its system OCI-LY10 human DLBCL xenografts. As to the kind of experiment: Study 3: combination efficacy (Compound B QD + Compound A BID), OCI-LY10 xenografts in NSG mice. To be noted: Compound B 30 mg/kg QD. Type of test: in vivo, mouse. As to the method: Following early animal dropouts in Study 2 due to tumor progression (metastasis and hindlimb paralysis), NSG female mice in Study 3 and Study 4 were injected SC into the right flank with a lower cell number (1×10^6 OCI-LY10 cells) in PBS containing 50% Matrigel™. On day 35 (Study 3) or day 32 (Study 4), mice were randomized based on tumor volume (see Table 4) and dosed orally QD day with Compound B and BID with Compound A (Study 3) or BID for both compounds (Study 4) with various dose concentrations according to treatment schedule above (see Table 4) for a period of 21 days.
Tumor volume in SC models was calculated using the formula: tumor volume (mm^3)=(D×d^2/2); where “D” represents the larger diameter and “d” the smaller diameter of the tumor as determined by calliper measurements. Tumor volume data was graphed as the mean tumor volume f SEM.
The percent ΔTGI was defined as the difference between mean tumor burden of the treatment and control groups, calculated using the following formula: ([(TVc−TVc0)−(TVt−TVt0)]/(TVc−TVc0))×100, where “TVc” is the mean tumor burden of a given control group, “TVc0” is the mean initial tumor burden of a given control group, “TVt” is the mean tumor burden of the treatment group, and “TVt0” is the mean initial tumor burden of the treatment group. The percent tumor growth inhibition (TGI) was defined as the difference between mean tumor volumes of the treated and control groups, calculated as: ((TVc−TVt)/TVc)×100 where “TVc” is the mean tumor volume of the control group and “TVt” is the mean tumor volume of the treatment group. […]
Tumor regression was calculated when mean tumor burden in treated group was smaller than the tumor burden at start of treatment of the same treated group. The % Tumor Regression (TR), quantified to reflect the treatment-related reduction of tumor volume as compared to baseline independent of the control group, was calculated using the following formula: % TR=(1-mean (TVti/TVt0i))×100 where “TVti” is the tumor burden of individual animals in a treatment group, and “TVt0i” is the initial tumor burden of the animal. […]

In test [7] the test system is OCI-Ly10. As to the kind of experiment: Proliferation of ABC-DLBCL cell lines (IC50). It is filed as cell-based. The following applies: Homo sapiens, OCI-Ly10; read-out: IC50, inhibition of proliferation.

Consider `C=CC(=O)N[C@H]1CCC[C@H]1NC(=O)c1sc2nccc3c2c1NC(=O)N3c1cnc(CC(C)C)cc1C` (atropisomer, axis not shown) [Compound B, N-((1R,2S)-2-acrylamidocyclopentyl)-5-(S)-(6-isobutyl-4-methylpyridin-3-yl)-4-oxo-4,5-dihydro-3H-1-thia-3,5,8-triazaacenaphthylene-2-carboxamide], for which, in test [1], the “serum secretion of IL 12p70” value was “significantly downregulated”, the “serum secretion of interleukin (IL)10” value was “significantly downregulated” and the “serum secretion of tumor necrosis factor α (TNF α)” value is listed as “significantly downregulated”. Besides, in test [2], the proliferation inhibition entry is given as “up to 75%”. Also, the proliferation inhibition entry in test [3] was “did not inhibit proliferation”. In addition, in test [4], the proliferation inhibition entry was “up to 80%”. Besides, the “patients with PR or CR” value in test [5] (Compound B monotherapy 140 mg QD and 140 mg BID, 7 treated patients) is given as “none of the 7 treated patients had PR or CR”. In addition, the “patients achieving PR” value in test [5] (Compound B monotherapy after dose escalation to 280 mg BID, Cycles 7 and 9 (1 MCL, 1 CLL)) is listed as “Two patients”. Moreover, in test [6] (Study 3, day 53), the TGI is on record as 50% and the ΔTGI is 65%. Moreover, the “animals removed due to clinical signs of tumor progression” value in test [6] (Study 3) is 1. Besides, the pIC50 in test [7] was 7.74.
